Experimental data as given in the NIST ThermoML archive (doi:10.1021/acs.jced.5b00242).

How the values were obtained:
[1] = Liquid; for mass density: Vibrating tube method
[2] = refractive index (Na D-line) (dimensionless); conditions: 101 kPa, Liquid, Standard Abbe refractometry

CC[n+]1ccn(C)c1.N[C@@H](CO)C(=O)[O-] [3-ethyl-1-methyl-1H-imidazolium L-serinate]
[1], 101 kPa, Stabinger Viscometer
Conditions | viscosity [mPa·s]
293.15 K | 3796.8
298.15 K | 2235.5
303.15 K | 1376.2
308.15 K | 882.82
313.15 K | 588.27
318.15 K | 405.12
323.15 K | 287.6
328.15 K | 209.91
333.15 K | 157.29
338.15 K | 119.86
343.15 K | 93.36
348.15 K | 74.03
353.15 K | 59.91

[1], 101.33 kPa
Conditions | mass density [kg/m3]
293.15 K | 1206.8
298.15 K | 1203.7
303.15 K | 1200.5
308.15 K | 1197.3
313.15 K | 1194
318.15 K | 1190.9
323.15 K | 1187.8
328.15 K | 1184.7
333.15 K | 1181.7
338.15 K | 1178.7
343.15 K | 1175.7
348.15 K | 1172.8
353.15 K | 1169.7

[2]
Conditions | refractive index
293.15 K | 1.52699
298.15 K | 1.52565
303.15 K | 1.52429
308.15 K | 1.52294
313.15 K | 1.52159
318.15 K | 1.52022
323.15 K | 1.51887
328.15 K | 1.51755
333.15 K | 1.5162
338.15 K | 1.51486
343.15 K | 1.51353
348.15 K | 1.5122
353.15 K | 1.51084

CCn1cc[n+](C)c1.C[C@H](N)C(=O)[O-] [1-ethyl-3-methylimidazolium L-alaninate]
[1], 101 kPa, Stabinger Viscometer
Conditions | viscosity [mPa·s]
293.15 K | 382.06
298.15 K | 263.98
303.15 K | 187.79
308.15 K | 137.47
313.15 K | 103.54
318.15 K | 79.34
323.15 K | 62.21
328.15 K | 49.69
333.15 K | 40.5
338.15 K | 33.22
343.15 K | 27.72
348.15 K | 23.38
353.15 K | 20.03

[1], 101.33 kPa
Conditions | mass density [kg/m3]
293.15 K | 1126.3
298.15 K | 1123
303.15 K | 1119.8
308.15 K | 1116.6
313.15 K | 1113.5
318.15 K | 1110.5
323.15 K | 1107.5
328.15 K | 1104.4
333.15 K | 1101.3
338.15 K | 1098.3
343.15 K | 1095.2
348.15 K | 1092.1
353.15 K | 1088.9

[2]
Conditions | refractive index
293.15 K | 1.51366
298.15 K | 1.51223
303.15 K | 1.51081
308.15 K | 1.50937
313.15 K | 1.50793
318.15 K | 1.50651
323.15 K | 1.50505
328.15 K | 1.50358
333.15 K | 1.50217
338.15 K | 1.50074
343.15 K | 1.49932
348.15 K | 1.49795
353.15 K | 1.49656

CCn1cc[n+](C)c1.O=C([O-])[C@@H]1CCCN1 [1-ethyl-3-methyl-1H-imidazolium L-prolinate]
[1], 101 kPa, Stabinger Viscometer
Conditions | viscosity [mPa·s]
293.15 K | 1928.4
298.15 K | 1194.6
303.15 K | 771.51
308.15 K | 517.61
313.15 K | 359.21
318.15 K | 256.92
323.15 K | 188.66
328.15 K | 141.76
333.15 K | 108.85
338.15 K | 85.12
343.15 K | 67.69
348.15 K | 54.73
353.15 K | 44.89

[1], 101.33 kPa
Conditions | mass density [kg/m3]
293.15 K | 1145.9
298.15 K | 1142.8
303.15 K | 1139.6
308.15 K | 1136.4
313.15 K | 1133.2
318.15 K | 1130.1
323.15 K | 1127.1
328.15 K | 1124
333.15 K | 1121
338.15 K | 1118
343.15 K | 1115
348.15 K | 1112
353.15 K | 1109.1

[2]
Conditions | refractive index
293.15 K | 1.52291
298.15 K | 1.52151
303.15 K | 1.52009
308.15 K | 1.5187
313.15 K | 1.51731
318.15 K | 1.51591
323.15 K | 1.51454
328.15 K | 1.51315
333.15 K | 1.51177
338.15 K | 1.51035
343.15 K | 1.50897
348.15 K | 1.50757
353.15 K | 1.5062

CCn1cc[n+](C)c1.NCCS(=O)(=O)[O-] [1-ethyl-3-methylimidazolium taurinate]
[1], 101 kPa, Stabinger Viscometer
Conditions | viscosity [mPa·s]
293.15 K | 760.89
298.15 K | 514.67
303.15 K | 359.36
308.15 K | 258.04
313.15 K | 190.44
318.15 K | 143.31
323.15 K | 110.35
328.15 K | 86.59
333.15 K | 69.36
338.15 K | 56.05
343.15 K | 46.1
348.15 K | 38.4
353.15 K | 32.53

[1], 101.33 kPa
Conditions | mass density [kg/m3]
293.15 K | 1255
298.15 K | 1251.5
303.15 K | 1248.1
308.15 K | 1244.8
313.15 K | 1241.6
318.15 K | 1238.6
323.15 K | 1235.5
328.15 K | 1232.4
333.15 K | 1229.2
338.15 K | 1226.1
343.15 K | 1223
348.15 K | 1219.9
353.15 K | 1216.8

[2]
Conditions | refractive index
293.15 K | 1.5135
298.15 K | 1.51217
303.15 K | 1.51084
308.15 K | 1.5095
313.15 K | 1.50816
318.15 K | 1.5068
323.15 K | 1.50543
328.15 K | 1.50403
333.15 K | 1.5027
338.15 K | 1.50136
343.15 K | 1.49997
348.15 K | 1.4986
353.15 K | 1.49726

CCn1cc[n+](C)c1.NCC(=O)[O-] [1-ethyl-3-methylimidazolium ammonioacetate]
[1], 101 kPa, Stabinger viscometer
Conditions | viscosity [mPa·s]
293.15 K | 240.18
298.15 K | 171.97
303.15 K | 126.19
308.15 K | 95.04
313.15 K | 73.5
318.15 K | 57.66
323.15 K | 46.21
328.15 K | 37.66
333.15 K | 31.24
338.15 K | 26.08
343.15 K | 22.11
348.15 K | 18.95
353.15 K | 16.45

[1], 101.33 kPa
Conditions | mass density [kg/m3]
293.15 K | 1164.3
298.15 K | 1161.2
303.15 K | 1158.1
308.15 K | 1155
313.15 K | 1152
318.15 K | 1149
323.15 K | 1146
328.15 K | 1143
333.15 K | 1139.9
338.15 K | 1136.9
343.15 K | 1133.8
348.15 K | 1130.7
353.15 K | 1127.4

[2]
Conditions | refractive index
293.15 K | 1.52134
298.15 K | 1.51997
303.15 K | 1.5186
308.15 K | 1.51724
313.15 K | 1.51585
318.15 K | 1.5145
323.15 K | 1.51313
328.15 K | 1.51179
333.15 K | 1.51041
338.15 K | 1.50904
343.15 K | 1.50769
348.15 K | 1.50637
353.15 K | 1.50495

CCn1cc[n+](C)c1.N#C[C-](C#N)C#N [1-ethyl-3-methyl-1H-imidazolium tricyanomethanide]
[1], 101 kPa, Stabinger viscometer
Conditions | viscosity [mPa·s]
293.15 K | 16.62
298.15 K | 14.19
303.15 K | 12.18
308.15 K | 10.58
313.15 K | 9.02
318.15 K | 8.2
323.15 K | 7.31
328.15 K | 6.56
333.15 K | 5.72
338.15 K | 5.38
343.15 K | 4.91
348.15 K | 4.5
353.15 K | 3.98

[1], 101 kPa
Conditions | mass density [kg/m3]
293.15 K | 1085
298.15 K | 1081
303.15 K | 1077
308.15 K | 1074
313.15 K | 1070
318.15 K | 1067
323.15 K | 1064
328.15 K | 1060
333.15 K | 1057
338.15 K | 1054
343.15 K | 1050
348.15 K | 1047
353.15 K | 1043

[2]
Conditions | refractive index
293.15 K | 1.51454
298.15 K | 1.51286
303.15 K | 1.51114
308.15 K | 1.50938
313.15 K | 1.50765
318.15 K | 1.50595
323.15 K | 1.50419
328.15 K | 1.50255
333.15 K | 1.50087
338.15 K | 1.49921
343.15 K | 1.49757
348.15 K | 1.49593
353.15 K | 1.49429
